Like-named read-outs stand apart in the source and are kept apart here.
Legend:
[1] = Octanol-water partition coefficient (pre-formulation); format: physicochemical
Description: The pre-formulation studies on CLEFMA depicted it as a highly hydrophobic drug with octanol-water partition coefficient of 5.66. It was hypothesized that liposomes might serve as a vehicle for CLEFMA preparation meant for parenteral administration. Parenteral liposome formulations of lipophilic drugs are challenging. Incorporation of a lipid-partitioning drug in liposomes may produce structurally instable liposomes, resulting in burst-release of drug, rapid clearance from the body, and/or overall poor efficacy. The entrapment of cyclodextrin (CD)-based inclusion complexes (IC) inside the liposomes can be a reliable and effective method of encapsulation of hydrophobic drugs. This strategy was first reported by Gregoriades [McCormack et al., 1994], and has recently been used for the encapsulation of isotretinoin [Kaur et al., 2010].

Nrf2 = assay: Nuclear extract immunoblot of phospho-Nrf2; format: cell-based, human; conditions: H441 cells, nuclear fraction
Procedure: Nuclear extract and immunoblotting: Nuclear extract was prepared using a kit from Active Motif (Carlsbad, Calif.) following the manufacturer's instructions. Briefly, H441 cells were allowed to grow for 24 h in 6-well plates before treatment with CLEFMA. After 12 or 24 h, the cells were scraped into ice-cold PBS and centrifuged at 300×g for 5 min to obtain a pellet. The pelleted cells was resuspended in a hypotonic buffer (20 mM HEPES, pH 7.5, 5 mM NaF, 0.1 mM EDTA, and 0.01 mM Sodium molybdate) and allowed to swell for 15 min on ice. The cells were lysed by adding 50 μl 10% Nonidet P-40 and centrifuged for 30 sec to separate the cytoplasmic and nuclear fractions. The nuclear fraction was extracted after 30 min in an ice-cold complete lysis buffer obtained with the kit. The nuclear extract was separated by centrifugation for 10 min at 14,000×g at 4° C. To immunoblot nuclear factor-erythroid 2-related factor 2 (Nrf2), the nuclear protein (10 μg) was separated on a 4/20% SDS-PAGE gel, transferred onto nitrocellulose membrane and probed with rabbit anti-phospho-Nrf2 antibody and HRP-conjugated goat anti-rabbit IgG antibody. The chemiluminescence signal was developed by Pierce SuperSignal West Femto reagent (Thermo Scientific, Rockford, Ill.). Equal protein loading was confirmed by stripping the blot and re-probing it with anti-actin antibody. […]

[2] = system: lung adenocarcinoma cell line H441; assay: Cell proliferation (hexosaminidase assay) in lung adenocarcinoma H441 cells, Example 1; format: cell-based, human; conditions: for IC50: Homo sapiens, NCI-H441, 24 h of treatment
Procedure: Cell Proliferation Studies: In order to assess the anti-proliferative activity of the synthesized compounds, an in vitro cell culture system of lung adenocarcinoma cell line H441 was used. The cell detachment and anti-proliferative activity was measured as a decrease in hexosaminidase enzyme activity associated with remainder of the adhered cells. [Landegren, 1984] […] The concentration versus cell proliferation plots were analyzed by an exponential fit (Table 1). The results were compared with the anti-proliferative activity of compound 1.
(§1) Cell Culture and drug treatment: Human lung adenocarcinoma cell line NCI-H441 (ATCC Number: HTB-174) was obtained from the American Type Culture Collection (Manassas, Va.). H441 cells were maintained at 37° C. with 5% CO2 in McCoy's 5A Medium (Invitrogen, Carlsbad, Calif.) supplemented with 5% heat-inactivated fetal bovine serum (FBS). All media contained gentamicin at 50 μg/ml (GIBCO Laboratories, Grand Island, N.Y.). Other cells lines (PANC-1, MiaPaCa-2 and PC-3) were also similarly maintained, except that the cell culture medium was RPMI 1640 instead of McCoy's.
(§2) To evaluate the anti-proliferative activity of synthesized bis(2-fluorobenzylidene)-4-piperidone and its derivatives, the cells were seeded in 96-well flat-bottom tissue culture plates at a density of 10×10^3 cells per well. The cells were allowed to attach and grow overnight. The test compounds were solubilized in dimethyl sulfoxide (DMSO), filtered through 0.2 μm nylon filter and added to cells at 1, 10, 25 and 100 μM concentrations in culture medium supplemented with 5% FBS. The DMSO concentration was maintained at 0.1% per well. Control wells received equivalent volume of DMSO without any test compounds. The cells were allowed to remain in the treatment medium for 24, 48 and 72 hours.
Cell Proliferation: The total number of cells after the treatment period was estimated by the hexosaminidase assay. [Landegren, 1984] Briefly, the medium was removed and hexosaminidase substrate solution in citrate buffer pH 5 (7.5 mM), […] (Calbiochem, San Diego, Calif.) was added at 60 μl per well. The plate was incubated at 37° C. in 100% humidity for 30 minutes, before stopping the reaction with 90 μl of 50 mM glycine containing 5 mM of EDTA (pH 10.4). The absorbance was measured at 405 nm. The experiments were conducted in triplicate, and repeated at least twice. The data were analyzed as percent of control, where the control wells were treated with equivalent amounts of DMSO alone, and the analyzed data was presented as average±standard error of mean. The differences among mean values were deemed significant at p<0.05.
For IC50 calculations, a plot between the drug concentration and hexosaminidase activity was generated and the data was fitted either linearly or exponentially. The best fit was used for further processing of data.

[3] = system: PC-3 (prostate cancer) cells; assay: Cell proliferation study in PC-3 cells; format: cell-based
Procedure: as §1
as §2, with “The DMSO concentration was maintained at 0.1% per well. Control wells received equivalent volume of DMSO without any test compounds. The cells were allowed to remain in the treatment medium for 24, 48 and 72 hours.” left out
Cell Proliferation: The total number of cells after the treatment period was estimated by the hexosaminidase assay. […] The absorbance was measured at 405 nm. […] The data were analyzed as percent of control, where the control wells were treated with equivalent amounts of DMSO alone, and the analyzed data was presented as average±standard error of mean. […]

H441 cells = assay: Reactive oxygen species assay (DCFH-DA) in H441 cells; format: cell-based, human; conditions: 24 and 48 h
Procedure: Reactive oxygen species (ROS) assay: The CLEFMA-induced generation of ROS in H441 and CCL-151 cells was measured using the OxiSelect assay kit (Cell Biolabs, Inc., San Diego, Calif.). Briefly, the cells were cultured in 96-well plates, and the cell-permeable fluorogenic probe 2′,7′-dichlorodihydrofluorescin diacetate (DCFH-DA) was added to the wells and the plate was incubated for 30-60 min. The wells were washed thrice with PBS and treated with CLEFMA in culture medium for 24 and 48 h. After the incubation period, the medium was removed and the cells were gently washed 2-3 times with PBS, and the fluorescence, indicating ROS activity, was measured at 480 nm/530 nm (excitation/emission wavelengths) using the Cytoflour 2300 (Millipore, Billerica, Mass.).

SMILES: O=C(O)C=CC(=O)N1CC(=Cc2ccccc2Cl)C(=O)C(=Cc2ccccc2Cl)C1 [Compound 29, 4-[3,5-Bis-(2-chlorobenzylidene)-4-oxo-piperidin-1-yl]-4-oxo-2-butenoic acid]
- octanol-water partition coefficient [1]: 5.66
- Nrf2 activation and nuclear translocation (Nrf2): activated Nrf2 and caused its translocation into the nuclear fraction
- anti-proliferative activity in words, relative to the comparator named [2]: enhanced the potency of antiproliferative action
- IC50 ([2]; 1-100 μM tested, fitted plot, read-out: IC50 value): 1 µM
- IC50 ([2]; read-out: IC50 (grouping relative to compound 1)): < 30 µM
- potency of antiproliferative action [3]: enhanced the potency of antiproliferative action
- ROS generation (H441 cells): generated ROS in a dose- and time-dependent fashion
